Laboratory results: the supplement of paper PMC5908809

Legend:
[1] = system: normal NK cells expanded with K562-aAPC; assay: percent inhibition of viability; higher = more inhibition; settings: 72 h, IL-2 2.5 ng/mL
Procedure: (§1)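 Drug sensitivity and resistance testing on K562-aAPC-expanded normal NK cells: 5 concentrations (10-fold steps over a 10,000-fold range), 72 h at 37 °C, viability by CellTiter-Glo normalised to DMSO and benzethonium chloride controls; DSS from the fitted curve.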

[2] = system: DERL-7 (IL-2 2.5 ng/mL); assay: as above; settings: 72 h
[3] = system: IMC-1 (IL-2 20 ng/mL); assay: as above; settings: 72 h
[4] = system: KAI3 (IL-2 2.5 ng/mL); assay: as above; settings: 72 h
[5] = system: KHYG-1 (IL-2 2.5 ng/mL); assay: as above; settings: 72 h
[6] = system: NK-92 (IL-2 2.5 ng/mL); assay: as above; settings: 72 h
[7] = system: NK-YS (IL-2 2.5 ng/mL); assay: as above; settings: 72 h
[8] = system: NKL (IL-2 2.5 ng/mL); assay: as above; settings: 72 h
[9] = system: SNK-6 (IL-2 2.5 ng/mL); assay: as above; settings: 72 h
[10] = system: YT (IL-2 2.5 ng/mL); assay: as above; settings: 72 h
[11] = system: normal primary NK cells, pool 1 (3 donors) (IL-2 2.5 ng/mL); assay: as above; settings: 72 h
[12] = system: normal primary NK cells, pool 1 (3 donors), resting (IL-2 0 ng/mL); assay: as above; settings: 72 h
[13] = system: normal primary NK cells, pool 2 (3 donors) (IL-2 2.5 ng/mL); assay: as above; settings: 72 h
[14] = system: normal primary NK cells, pool 3 (3 donors) (IL-2 2.5 ng/mL); assay: as above; settings: 72 h
[15] = system: normal NK cells expanded with K562-aAPC; assay: drug sensitivity score (DSS) (DSS units); higher = more sensitive; extreme values may be limits of the assay; settings: 72 h; IL-2 2.5 ng/mL
Procedure: as §1

[16] = system: DERL-7 (IL-2 2.5 ng/mL); assay: as above; settings: 72 h
[17] = system: IMC-1 (IL-2 20 ng/mL); assay: as above; settings: 72 h
[18] = system: KAI3 (IL-2 2.5 ng/mL); assay: as above; settings: 72 h
[19] = system: KHYG-1 (IL-2 2.5 ng/mL); assay: as above; settings: 72 h
[20] = system: NK-92 (IL-2 2.5 ng/mL); assay: as above; settings: 72 h
[21] = system: NK-YS (IL-2 2.5 ng/mL); assay: as above; settings: 72 h
[22] = system: NKL (IL-2 2.5 ng/mL); assay: as above; settings: 72 h
[23] = system: SNK-6 (IL-2 2.5 ng/mL); assay: as above; settings: 72 h
[24] = system: YT (IL-2 2.5 ng/mL); assay: as above; settings: 72 h
[25] = system: normal primary NK cells, pool 1 (3 donors) (IL-2 2.5 ng/mL); assay: as above; settings: 72 h
[26] = system: normal primary NK cells, pool 1 (3 donors), resting (IL-2 0 ng/mL); assay: as above; settings: 72 h
[27] = system: normal primary NK cells, pool 2 (3 donors) (IL-2 2.5 ng/mL); assay: as above; settings: 72 h
[28] = system: normal primary NK cells, pool 3 (3 donors) (IL-2 2.5 ng/mL); assay: as above; settings: 72 h

Compound: NS(=O)(=O)OC[C@@H]1C[C@@H](n2ccc3c(N[C@H]4CCc5ccccc54)ncnc32)C[C@@H]1O [Pevonedistat] (max concentration tested 10000 nM)
- percent inhibition of viability ([1]; 1 nM): -5%
- percent inhibition of viability ([1]; 10 nM): -5.72%
- percent inhibition of viability ([1]; 100 nM): -9.68%
- percent inhibition of viability ([1]; 1000 nM): 70.2%
- percent inhibition of viability ([1]; 10000 nM): 80.3%
- percent inhibition of viability ([2]; 1 nM): 1.08%
- percent inhibition of viability ([2]; 10 nM): 2.36%
- percent inhibition of viability ([2]; 100 nM): -6.58%
- percent inhibition of viability ([2]; 1000 nM): 91.5%
- percent inhibition of viability ([2]; 10000 nM): 101%
- percent inhibition of viability ([3]; 1 nM): 0.59%
- percent inhibition of viability ([3]; 10 nM): 6.87%
- percent inhibition of viability ([3]; 100 nM): 46.6%
- percent inhibition of viability ([3]; 1000 nM): 92.8%
- percent inhibition of viability ([3]; 10000 nM): 98.2%
- percent inhibition of viability ([4]; 1 nM): 9.59%
- percent inhibition of viability ([4]; 10 nM): 12.4%
- percent inhibition of viability ([4]; 100 nM): 70.2%
- percent inhibition of viability ([4]; 1000 nM): 95%
- percent inhibition of viability ([4]; 10000 nM): 100%
- percent inhibition of viability ([5]; 1 nM): 3.14%
- percent inhibition of viability ([5]; 10 nM): -1.1%
- percent inhibition of viability ([5]; 100 nM): 71.7%
- percent inhibition of viability ([5]; 1000 nM): 105%
- percent inhibition of viability ([5]; 10000 nM): 106%
- percent inhibition of viability ([6]; 1 nM): -8.15%
- percent inhibition of viability ([6]; 10 nM): 6.99%
- percent inhibition of viability ([6]; 100 nM): 1.09%
- percent inhibition of viability ([6]; 1000 nM): 75.8%
- percent inhibition of viability ([6]; 10000 nM): 109%
- percent inhibition of viability ([7]; 1 nM): 0.95%
- percent inhibition of viability ([7]; 10 nM): -1.33%
- percent inhibition of viability ([7]; 100 nM): 3.83%
- percent inhibition of viability ([7]; 1000 nM): 78.1%
- percent inhibition of viability ([7]; 10000 nM): 98.4%
- percent inhibition of viability ([8]; 1 nM): -12.9%
- percent inhibition of viability ([8]; 10 nM): -14.6%
- percent inhibition of viability ([8]; 100 nM): -16.9%
- percent inhibition of viability ([8]; 1000 nM): 92.3%
- percent inhibition of viability ([8]; 10000 nM): 104%
- percent inhibition of viability ([9]; 1 nM): 23.6%
- percent inhibition of viability ([9]; 10 nM): 3.72%
- percent inhibition of viability ([9]; 100 nM): 89%
- percent inhibition of viability ([9]; 1000 nM): 97.2%
- percent inhibition of viability ([9]; 10000 nM): 99.5%
- percent inhibition of viability ([10]; 1 nM): -2.08%
- percent inhibition of viability ([10]; 10 nM): 2.87%
- percent inhibition of viability ([10]; 100 nM): 62.7%
- percent inhibition of viability ([10]; 1000 nM): 79.6%
- percent inhibition of viability ([10]; 10000 nM): 82.8%
- percent inhibition of viability ([11]; 1 nM): -6.09%
- percent inhibition of viability ([11]; 10 nM): 19.2%
- percent inhibition of viability ([11]; 100 nM): 23.3%
- percent inhibition of viability ([11]; 1000 nM): 57.4%
- percent inhibition of viability ([11]; 10000 nM): 69.8%
- percent inhibition of viability ([12]; 1 nM): 1.82%
- percent inhibition of viability ([12]; 10 nM): 21.5%
- percent inhibition of viability ([12]; 100 nM): -26.7%
- percent inhibition of viability ([12]; 1000 nM): -18.9%
- percent inhibition of viability ([12]; 10000 nM): -22.4%
- percent inhibition of viability ([13]; 1 nM): -6.66%
- percent inhibition of viability ([13]; 10 nM): 4.92%
- percent inhibition of viability ([13]; 100 nM): 9.96%
- percent inhibition of viability ([13]; 1000 nM): 45%
- percent inhibition of viability ([13]; 10000 nM): 64.2%
- percent inhibition of viability ([14]; 1 nM): -5.71%
- percent inhibition of viability ([14]; 10 nM): 5%
- percent inhibition of viability ([14]; 100 nM): 10.3%
- percent inhibition of viability ([14]; 1000 nM): 68.8%
- percent inhibition of viability ([14]; 10000 nM): 81%
- drug sensitivity score [15]: 12.6
- drug sensitivity score [16]: 16.3
- drug sensitivity score [17]: 22.6
- drug sensitivity score [18]: 27.2
- drug sensitivity score [19]: 26.2
- drug sensitivity score [20]: 14.2
- drug sensitivity score [21]: 15
- drug sensitivity score [22]: 16.1
- drug sensitivity score [23]: 29
- drug sensitivity score [24]: 22.8
- drug sensitivity score [25]: 14
- drug sensitivity score [26]: 0
- drug sensitivity score [27]: 9.66
- drug sensitivity score [28]: 14

Compound: CS(=O)(=O)N1CCN(Cc2cc3nc(-c4cccc5[nH]ncc45)nc(N4CCOCC4)c3s2)CC1 [Pictilisib] (max concentration tested 10000 nM)
- percent inhibition of viability ([1]; 1 nM): 2.02%
- percent inhibition of viability ([1]; 10 nM): 0.78%
- percent inhibition of viability ([1]; 100 nM): 10.8%
- percent inhibition of viability ([1]; 1000 nM): 25.4%
- percent inhibition of viability ([1]; 10000 nM): 51.1%
- percent inhibition of viability ([2]; 1 nM): 0.8%
- percent inhibition of viability ([2]; 10 nM): 4.11%
- percent inhibition of viability ([2]; 100 nM): 16.1%
- percent inhibition of viability ([2]; 1000 nM): 57.5%
- percent inhibition of viability ([2]; 10000 nM): 87.1%
- percent inhibition of viability ([3]; 1 nM): -6.08%
- percent inhibition of viability ([3]; 10 nM): -5.88%
- percent inhibition of viability ([3]; 100 nM): -14.1%
- percent inhibition of viability ([3]; 1000 nM): -27.2%
- percent inhibition of viability ([3]; 10000 nM): -37%
- percent inhibition of viability ([4]; 1 nM): -6.58%
- percent inhibition of viability ([4]; 10 nM): 2.21%
- percent inhibition of viability ([4]; 100 nM): 8.79%
- percent inhibition of viability ([4]; 1000 nM): 17.4%
- percent inhibition of viability ([4]; 10000 nM): 52.6%
- percent inhibition of viability ([5]; 1 nM): -3.48%
- percent inhibition of viability ([5]; 10 nM): -3.66%
- percent inhibition of viability ([5]; 100 nM): -5.51%
- percent inhibition of viability ([5]; 1000 nM): 9.17%
- percent inhibition of viability ([5]; 10000 nM): 62.5%
- percent inhibition of viability ([6]; 1 nM): 4.34%
- percent inhibition of viability ([6]; 10 nM): 0.31%
- percent inhibition of viability ([6]; 100 nM): 30.3%
- percent inhibition of viability ([6]; 1000 nM): 36.6%
- percent inhibition of viability ([6]; 10000 nM): 73.9%
- percent inhibition of viability ([7]; 1 nM): 0.04%
- percent inhibition of viability ([7]; 10 nM): 3.57%
- percent inhibition of viability ([7]; 100 nM): 4.67%
- percent inhibition of viability ([7]; 1000 nM): 27.4%
- percent inhibition of viability ([7]; 10000 nM): 64.3%
- percent inhibition of viability ([8]; 1 nM): -16%
- percent inhibition of viability ([8]; 10 nM): -14.4%
- percent inhibition of viability ([8]; 100 nM): -0.35%
- percent inhibition of viability ([8]; 1000 nM): 45.4%
- percent inhibition of viability ([8]; 10000 nM): 73.1%
- percent inhibition of viability ([9]; 1 nM): 9.42%
- percent inhibition of viability ([9]; 10 nM): 16.7%
- percent inhibition of viability ([9]; 100 nM): -3.54%
- percent inhibition of viability ([9]; 1000 nM): 3.83%
- percent inhibition of viability ([9]; 10000 nM): 42%
- percent inhibition of viability ([10]; 1 nM): -3.11%
- percent inhibition of viability ([10]; 10 nM): -1.03%
- percent inhibition of viability ([10]; 100 nM): 5.07%
- percent inhibition of viability ([10]; 1000 nM): 24.7%
- percent inhibition of viability ([10]; 10000 nM): 62%
- percent inhibition of viability ([11]; 1 nM): -12%
- percent inhibition of viability ([11]; 10 nM): -5.63%
- percent inhibition of viability ([11]; 100 nM): 1.66%
- percent inhibition of viability ([11]; 1000 nM): 32.2%
- percent inhibition of viability ([11]; 10000 nM): 72.9%
- percent inhibition of viability ([12]; 1 nM): -0.3%
- percent inhibition of viability ([12]; 10 nM): -14.8%
- percent inhibition of viability ([12]; 100 nM): 0.53%
- percent inhibition of viability ([12]; 1000 nM): 45.2%
- percent inhibition of viability ([12]; 10000 nM): 63.4%
- percent inhibition of viability ([13]; 1 nM): -12.1%
- percent inhibition of viability ([13]; 10 nM): 3.86%
- percent inhibition of viability ([13]; 100 nM): 0.41%
- percent inhibition of viability ([13]; 1000 nM): 8.6%
- percent inhibition of viability ([13]; 10000 nM): 55.1%
- percent inhibition of viability ([14]; 1 nM): -9.78%
- percent inhibition of viability ([14]; 10 nM): -13.3%
- percent inhibition of viability ([14]; 100 nM): -0.72%
- percent inhibition of viability ([14]; 1000 nM): 3.18%
- percent inhibition of viability ([14]; 10000 nM): 37.3%
- drug sensitivity score [15]: 5.88
- drug sensitivity score [16]: 12.9
- drug sensitivity score [17]: 0
- drug sensitivity score [18]: 4.66
- drug sensitivity score [19]: 4.95
- drug sensitivity score [20]: 11
- drug sensitivity score [21]: 6.66
- drug sensitivity score [22]: 9.46
- drug sensitivity score [23]: 2.73
- drug sensitivity score [24]: 6.22
- drug sensitivity score [25]: 8.06
- drug sensitivity score [26]: 8.8
- drug sensitivity score [27]: 4.41
- drug sensitivity score [28]: 2.3
